For seven compounds, inhibition, Activity and IC50 results are on record in ChEMBL document CHEMBL4400519, “Indazolylketones as new multitarget cannabinoid drugs” (Eur J Med Chem, 2019).

Calls of active or inactive are those of the source. No cut-off for these calls is given here.

The target in data set [1] is T1, Cannabinoid receptor (Mus musculus) (UniProt P47746+P47936). Description: Agonist activity at cannabinoid receptor in ICR mouse vas deferens assessed as inhibition of electrically induced contractions at 10^-7 M after 10 mins in presence of CB1 antagonist AM251 relative to control. In kind it is protein assay.
T1 sequence (P47746 whole entry, looked up): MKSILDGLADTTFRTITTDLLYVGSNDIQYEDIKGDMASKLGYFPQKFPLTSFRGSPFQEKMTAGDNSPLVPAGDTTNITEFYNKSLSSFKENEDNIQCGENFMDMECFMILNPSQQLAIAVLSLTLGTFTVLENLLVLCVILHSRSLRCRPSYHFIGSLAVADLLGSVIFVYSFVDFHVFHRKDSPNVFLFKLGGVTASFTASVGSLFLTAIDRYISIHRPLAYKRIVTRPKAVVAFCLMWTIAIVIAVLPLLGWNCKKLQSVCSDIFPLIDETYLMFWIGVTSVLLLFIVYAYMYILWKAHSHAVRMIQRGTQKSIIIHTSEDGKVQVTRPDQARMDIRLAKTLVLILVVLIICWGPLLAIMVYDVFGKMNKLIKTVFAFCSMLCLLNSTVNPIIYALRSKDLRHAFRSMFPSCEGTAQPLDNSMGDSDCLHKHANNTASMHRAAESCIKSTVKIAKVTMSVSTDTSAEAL
T1 sequence (P47936 whole entry, looked up): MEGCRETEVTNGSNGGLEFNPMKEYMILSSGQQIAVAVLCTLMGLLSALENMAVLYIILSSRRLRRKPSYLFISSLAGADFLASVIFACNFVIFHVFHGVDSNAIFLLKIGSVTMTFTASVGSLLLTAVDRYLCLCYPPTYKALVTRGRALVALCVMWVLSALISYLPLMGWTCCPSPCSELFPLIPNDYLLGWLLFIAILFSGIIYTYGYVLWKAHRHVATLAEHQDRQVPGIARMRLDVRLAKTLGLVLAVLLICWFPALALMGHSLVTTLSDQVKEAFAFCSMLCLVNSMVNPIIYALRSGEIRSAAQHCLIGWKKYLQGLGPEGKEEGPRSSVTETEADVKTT
Data set [2] can be described thus: Antioxidant activity assessed as trolox equivalent of APPH-induced radical scavenging activity by ORAC-FL assay. It counts as functional.
Data set [3] addresses T1, Cannabinoid receptor (Mus musculus). Description: Agonist activity at cannabinoid receptor in ICR mouse vas deferens assessed as inhibition of electrically induced contractions at 8.1 x 10^-6 M after 10 mins relative to control. It counts as protein assay.
Data set [4] has the same target. Description: Agonist activity at cannabinoid receptor in ICR mouse vas deferens assessed as inhibition of electrically induced contractions at 3 x 10^-7 M after 10 mins relative to control. It counts as protein assay.
The target is the same in data set [5]. Description: Agonist activity at cannabinoid receptor in ICR mouse vas deferens assessed as inhibition of electrically induced contractions at 10^-7 M after 10 mins relative to control. In kind it is protein assay.
In data set [6] the target is Beta-secretase 1 (Homo sapiens) (UniProt P56817). Nature of the data set: Inhibition of human BACE1 at 10 uM incubated for 60 mins using rhodamine-EVNLDAEFK-quencher substrate by FRET assay.
Sequence of Beta-secretase 1 (Homo sapiens) (P56817 whole entry): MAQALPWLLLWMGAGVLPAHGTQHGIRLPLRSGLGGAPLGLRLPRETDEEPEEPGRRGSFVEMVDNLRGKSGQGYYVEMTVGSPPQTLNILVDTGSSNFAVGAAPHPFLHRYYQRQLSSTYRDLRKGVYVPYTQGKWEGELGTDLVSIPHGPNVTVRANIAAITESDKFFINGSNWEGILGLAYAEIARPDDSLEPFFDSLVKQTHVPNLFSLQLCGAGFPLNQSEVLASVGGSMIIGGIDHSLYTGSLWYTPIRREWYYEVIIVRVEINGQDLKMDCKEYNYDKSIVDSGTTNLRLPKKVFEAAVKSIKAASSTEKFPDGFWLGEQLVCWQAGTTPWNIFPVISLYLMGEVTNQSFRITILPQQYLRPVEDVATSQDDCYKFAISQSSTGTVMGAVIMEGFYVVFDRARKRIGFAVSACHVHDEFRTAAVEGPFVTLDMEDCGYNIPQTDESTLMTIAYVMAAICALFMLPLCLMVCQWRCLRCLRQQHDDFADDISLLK
The target of data set [7] is T1, Cannabinoid receptor (Mus musculus). Nature of the data set: Agonist activity at cannabinoid receptor in ICR mouse vas deferens assessed as inhibition of electrically induced contractions at 10^-7 M after 10 mins in presence of CB2 antagonist AM630 relative to control. It counts as protein assay.
Data set [8] shares this target. Description: Agonist activity at cannabinoid receptor in ICR mouse vas deferens assessed as inhibition of electrically induced contractions at 8.1 x 10^-6 M after 10 mins in presence of CB2 antagonist AM630 relative to control. It counts as protein assay.
For data set [9] the target is unchanged. Nature of the data set: Agonist activity at cannabinoid receptor in ICR mouse vas deferens assessed as inhibition of electrically induced contractions at 8.1 x 10^-6 M after 10 mins in presence of CB1 antagonist AM251 relative to control. It counts as protein assay.
For data set [10] the target is unchanged. Nature of the data set: Agonist activity at cannabinoid receptor in ICR mouse vas deferens assessed as inhibition of electrically induced contractions at 3 x 10^-7 M after 10 mins in presence of CB2 antagonist AM630 relative to control. In kind it is protein assay.
The target is the same in data set [11]. Nature of the data set: Agonist activity at cannabinoid receptor in ICR mouse vas deferens assessed as inhibition of electrically induced contractions at 9 x 10^-7 M after 10 mins in presence of CB2 antagonist AM630 relative to control. It counts as protein assay.
The target is the same in data set [12]. Description: Agonist activity at cannabinoid receptor in ICR mouse vas deferens assessed as inhibition of electrically induced contractions at 9 x 10^-7 M after 10 mins relative to control. It counts as protein assay.
Data set [13] has the same target. Description: Agonist activity at cannabinoid receptor in ICR mouse vas deferens assessed as inhibition of electrically induced contractions at 1.82 x 10^-5 M after 10 mins in presence of CB2 antagonist AM630 relative to control. In kind it is protein assay.
For data set [14] the target is unchanged. Nature of the data set: Agonist activity at cannabinoid receptor in ICR mouse vas deferens assessed as inhibition of electrically induced contractions at 1.82 x 10^-5 M after 10 mins in presence of CB1 antagonist AM251 relative to control. It counts as protein assay.
In data set [15] the target is T2, Acetylcholinesterase (Homo sapiens, UniProt P22303). Nature of the data set: Inhibition of human erythrocyte AChE using acetylthiocholine as substrate by Ellman's assay. Background: DTNB colorimetry detects thiols as they appear.
T2 sequence (P22303 whole entry): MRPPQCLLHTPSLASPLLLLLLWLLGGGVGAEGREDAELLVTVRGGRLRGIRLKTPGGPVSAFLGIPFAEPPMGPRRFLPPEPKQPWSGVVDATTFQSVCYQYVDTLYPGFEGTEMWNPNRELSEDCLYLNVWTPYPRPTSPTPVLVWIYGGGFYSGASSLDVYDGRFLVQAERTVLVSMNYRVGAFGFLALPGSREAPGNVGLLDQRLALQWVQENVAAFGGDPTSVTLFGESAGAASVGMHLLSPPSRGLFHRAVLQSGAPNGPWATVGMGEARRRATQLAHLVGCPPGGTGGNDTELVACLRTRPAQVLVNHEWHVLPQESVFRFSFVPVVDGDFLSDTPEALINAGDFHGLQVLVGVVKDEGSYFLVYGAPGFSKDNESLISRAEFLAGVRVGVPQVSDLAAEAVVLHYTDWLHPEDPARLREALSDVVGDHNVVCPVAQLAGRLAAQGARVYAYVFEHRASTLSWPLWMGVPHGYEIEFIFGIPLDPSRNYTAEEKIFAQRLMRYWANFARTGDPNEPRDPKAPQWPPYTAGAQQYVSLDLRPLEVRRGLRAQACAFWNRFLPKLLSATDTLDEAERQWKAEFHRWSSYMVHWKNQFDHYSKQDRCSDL
For data set [16], the target named is T2, Acetylcholinesterase. Description: Inhibition of human erythrocyte AChE at 10 uM using acetylthiocholine as substrate by Ellman's assay.
The target of data set [17] is T1, Cannabinoid receptor (Mus musculus). Nature of the data set: Agonist activity at cannabinoid receptor in ICR mouse vas deferens assessed as inhibition of electrically induced contractions at 2.7 x 10^-6 M after 10 mins in presence of CB2 antagonist AM630 relative to control. It counts as protein assay.
For another data set, the target named is Cholinesterase (Homo sapiens, UniProt P06276). Description: Inhibition of human serum BChE using butyrylthiocholine as substrate by Ellman's assay.
Sequence of Cholinesterase (P06276 whole entry): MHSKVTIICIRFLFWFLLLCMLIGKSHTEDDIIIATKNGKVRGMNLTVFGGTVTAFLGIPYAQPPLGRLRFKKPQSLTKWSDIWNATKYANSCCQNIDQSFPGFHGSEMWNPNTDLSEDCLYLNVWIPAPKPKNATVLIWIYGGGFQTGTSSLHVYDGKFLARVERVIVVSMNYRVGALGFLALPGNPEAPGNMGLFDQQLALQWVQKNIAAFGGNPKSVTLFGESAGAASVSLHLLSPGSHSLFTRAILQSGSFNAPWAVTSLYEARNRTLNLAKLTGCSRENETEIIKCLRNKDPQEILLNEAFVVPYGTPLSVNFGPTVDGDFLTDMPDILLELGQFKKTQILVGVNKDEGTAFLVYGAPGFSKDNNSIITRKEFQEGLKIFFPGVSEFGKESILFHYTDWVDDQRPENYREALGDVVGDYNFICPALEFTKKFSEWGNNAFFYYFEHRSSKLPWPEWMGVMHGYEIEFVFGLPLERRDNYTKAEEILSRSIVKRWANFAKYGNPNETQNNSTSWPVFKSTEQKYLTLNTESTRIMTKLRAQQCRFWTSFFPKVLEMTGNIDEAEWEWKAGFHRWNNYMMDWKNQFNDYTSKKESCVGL
Data set [18] deals with T1, Cannabinoid receptor (Mus musculus). Nature of the data set: Agonist activity at cannabinoid receptor in ICR mouse vas deferens assessed as inhibition of electrically induced contractions at 1.82 x 10^-5 M after 10 mins relative to control. In kind it is protein assay.
Data set [19] has the same target. Nature of the data set: Agonist activity at cannabinoid receptor in ICR mouse vas deferens assessed as inhibition of electrically induced contractions at 2.7 x 10^-6 M after 10 mins relative to control. In kind it is protein assay.
Data set [20] shares this target. Description: Agonist activity at cannabinoid receptor in ICR mouse vas deferens assessed as inhibition of electrically induced contractions at 9 x 10^-7 M after 10 mins in presence of CB1 antagonist AM251 relative to control. It counts as protein assay.
Data set [21] shares this target. Description: Agonist activity at cannabinoid receptor in ICR mouse vas deferens assessed as inhibition of electrically induced contractions at 2.7 x 10^-6 M after 10 mins in presence of CB1 antagonist AM251 relative to control. It counts as protein assay.
Data set [22] shares this target. Description: Agonist activity at cannabinoid receptor in ICR mouse vas deferens assessed as inhibition of electrically induced contractions at 3 x 10^-7 M after 10 mins in presence of CB1 antagonist AM251 relative to control. It counts as protein assay.
Data set [23] has as its system SH-SY5Y. Nature of the data set: Neuroprotective activity against amyloid beta-induced neurodegeneration in human SH-SY5Y cells at 20 uM preincubated for 1 hr followed by amyloid beta addition and measured after 24 hrs in presence of CB2 antagonist AM630 by MTT assay. It counts as functional, cell-based. For orientation: Formazan colour is commonly taken as a measure of viable cells.

The species entered for data set [24] is Homo sapiens. Description: Antiproliferative activity against Alzheimer's patient derived lymphoblast cells at 5 uM in presence of CB2 antagonist AM630 after 72 hrs by MTT assay. In kind it is functional.
Data set [25] can be described thus: Antiproliferative activity against normal human derived lymphoblast cells at 5 uM after 72 hrs by MTT assay.
For data set [26], the system named is SH-SY5Y. Description: Neuroprotective activity against amyloid beta-induced neurodegeneration in human SH-SY5Y cells at 20 uM preincubated for 1 hr followed by amyloid beta addition and measured after 24 hrs by MTT assay. In kind it is functional, cell-based.
The species entered for data set [27] is Homo sapiens. Nature of the data set: Antiproliferative activity against Alzheimer's patient derived lymphoblast cells at 5 uM after 72 hrs by MTT assay. In kind it is functional.

In the case of `O=C(c1cccc2ccccc12)n1nc(OCCN2CCCCC2)c2ccccc21`, the inhibition – broadly, the change of the read-out against control, counted positive when it falls – in data set [1] is -7.7%; in [3], 69.2%; in data set [4], 1.4%; in data set [5], -0.7%; in data set [6] it was 11%; in [7], -8.6%. Besides, the inhibition in data set [8] was 73.6%; in data set [9], 27.8%; in [10], -7.9%; in data set [11], -2.6%; in data set [12], 8.6%; in [13], 92%. Further, the inhibition worked out at 73.3% in data set [14]; 37% against Acetylcholinesterase [16]; 15.7% in [17]; 93.7% in [18]; 28.6% in data set [19]. Moreover, the result in [2] was inactive. In addition, the IC50 – broadly, the point on the concentration scale where inhibition reaches its midpoint – on Acetylcholinesterase [15] is over 10 µM; against Cholinesterase, 0.26 nM.
For the compound `O=C(c1cccc2ccccc12)n1nc(OCCCN2CCCCC2)c2ccccc21`, the inhibition in [1] was -6.4%; in data set [3], 31.5%; in data set [20] it was -3.7%; in data set [4], 3%; in data set [5], 1%; in [6], 42%. Also, the inhibition was -8.2% in [7]; -2.4% in [21]; 41% in [8]; 2.7% in data set [9]; -5.4% in data set [10]; 0.1% in data set [11]. Moreover, the inhibition was 7.9% in [12]; 56.7% in data set [13]; 18.4% in data set [14]; -5% in data set [22]; 43% against Acetylcholinesterase [16]; 14.2% in [17]. Moreover, the inhibition is 55.9% in data set [18] and 16% in data set [19]. In addition, the outcome in data set [2] was inactive. Besides, the figures for the IC50 against Acetylcholinesterase [15] and on Cholinesterase were over 10 µM and 0.07 nM, respectively.
Turning to `O=C(c1ccccc1Cl)n1nc(OCCN2CCCC2)c2ccccc21`, the outcome (in the data set with SH-SY5Y [23]; in [2]; in the data set listed under Homo sapiens [24]) was inactive. Besides, the inhibition in data set [1] was -2.8%; in data set [3], 45.9%; in [20] it was -1.2%; in data set [4], 4.9%; in data set [5], 1.5%; in data set [6], 9%. The inhibition in data set [7] is -2.5%; in data set [21], -2.2%; in data set [8] it was 15.8%; in data set [9], -2.6%; in data set [10], 0.3%; in data set [11], 3.5%. Moreover, the inhibition in data set [12] is 10.8%; in [13] it was 29.3%; in data set [14], 21.1%; in data set [22], -2.8%; in [17] it was 8.8%; in data set [18], 75.4%. Moreover, the inhibition in [19] is 15.1%. In addition, in data set [25], the Activity result is “Non-Toxic”. Further, the result with SH-SY5Y [26] and in the data set filed under Homo sapiens [27] was Active. Moreover, the IC50 against Acetylcholinesterase [15] is 9.7 µM; at Cholinesterase, 1300 nM.
As for `O=C(c1cccc2ccccc12)n1nc(OCCCN2CCCC2)c2ccccc21`, the inhibition is -6.7% in data set [1]; 56.1% in data set [3]; -7.2% in [20]; 0.5% in data set [4]; -2% in [5]; 20% in data set [6]. In addition, the inhibition was -2.7% in data set [7]; 5.7% in [21]; 68.7% in data set [8]; 57.9% in data set [9]; -0.9% in [10]; 4% in data set [11]. In addition, the inhibition is 3.2% in data set [12]; 89.5% in data set [13]; 88.4% in [14]; -8.6% in data set [22]; 35% at Acetylcholinesterase [16]; 15.2% in [17]. The inhibition was found to be 87.4% in data set [18] and 11.3% in [19]. Moreover, in data set [2], the outcome was inactive. Further, the IC50 against Acetylcholinesterase [15] is over 10 µM; against Cholinesterase, 0.15 nM.
Turning to `CCCC(C)(C)c1ccc2c(c1)OC(C)(C)[C@@H]1CC=C(C)C[C@@H]21`, the Activity result in data set [25] was “Non-Toxic”. The result in the data set filed under Homo sapiens [27] was Active.
As for `O=C(c1cccc(Cl)c1Cl)n1nc(OCCN2CCCC2)c2ccccc21`, the outcome in the data set with SH-SY5Y [23] and in the data set filed under Homo sapiens [24] was inactive. For the same compound, the inhibition in data set [1] was -0.3%; in [3] it was 56.3%; in data set [20], 7.1%; in [4], 5.6%; in data set [5], 1.6%; in [6], 32.6%. The inhibition in data set [7] is 0%; in data set [21], 13%; in data set [8], 30.4%; in data set [9], 44.8%; in [10] it was 3.4%; in [11], 7.9%. Also, the inhibition was 17.3% in data set [12]; 52.9% in data set [13]; 80.4% in data set [14]; 3.4% in data set [22]; 14.2% in data set [17]; 80.8% in data set [18]. The inhibition in data set [19] worked out at 27.8%. Besides, the Activity in [2] was 0.41 equiv; in data set [25], “Non-Toxic”. Also, the outcome with SH-SY5Y [26] and in the data set filed under Homo sapiens [27] was Active. Also, the IC50 is over 10 µM against Acetylcholinesterase [15] and 230 nM against Cholinesterase.
Regarding `O=C(c1cccc(F)c1F)n1nc(OCCN2CCCC2)c2ccccc21`, the inhibition in data set [1] was -1.6%; in data set [3], 37.5%; in [20], 4.9%; in [4], 3.6%; in data set [5] it was 0.8%; in data set [6], 14%. In addition, the inhibition is -3.8% in data set [7]; 12.5% in data set [21]; 21.2% in data set [8]; 23.3% in data set [9]; -2.8% in [10]; 3.7% in data set [11]. Also, the inhibition was 11% in data set [12]; 30.1% in [13]; 29.9% in data set [14]; -1.2% in data set [22]; 13.2% in data set [17]; 49.4% in data set [18]. The inhibition in data set [19] is 24.1%. The outcome in [2] was inactive. Besides, the IC50 at Acetylcholinesterase [15] is 11 µM; against Cholinesterase, 11000 nM.
